Results: US9029396B2, “Substituted indole derivatives” (Novartis AG, priority 2011, dated 2015)

What was measured:
PKC-alpha = biological target: T1, PKC-alpha (Homo sapiens, UniProt P17252); test: Protein kinase C alpha assay (Caliper mobility shift); type: biochemical; settings: full length human recombinant enzyme, 17 μM ATP; read-out: PKCα (IC50 in nM)
T1 construct: Both enzymes were full length human recombinant protein expressed in insect cells; purchased Invitrogen AG, Basel, Switzerland; host or cells: insect cells
Experimental: (§1) The compounds of the invention were tested for their activity on different PKC isotypes according to the following method. All assays were performed in 384 well microtiter plates. Each assay plate contained 8-point serial dilutions for 40 test compounds, as well as two 16-point serial dilutions of staurosporine as reference compound, plus 16 high- and 16 low controls. Liquid handling and incubation steps were done on a automated workstation equipped with a Innovadyne Nanodrop Express.
(§2) The assay plates were prepared by addition of 50 nL per well of compound solution in 90% DMSO. The kinase reactions were started by stepwise addition of 4.5 μl per well of a 2× peptide/ATP-solution and 4.5 μl per well of a 2× enzyme solution. The final concentration of reagents during kinase reaction were: 50 mM HEPES, pH 7.5, 1 mM DTT, 0.02% Tween20, 0.02% BSA, 0.6% DMSO, 10 mM beta-glycerophosphate, and 10 μM sodium orthovanadate. The peptide substrate used in the PKC-alpha and PKC-theta assays was Dy495-X5-ME-Mpr-RFARKGSLRQKNV-COOH. […]
(§3) Plates with terminated kinase reactions were transferred to the Caliper LC3000 workstations for reading. Phosphorylated and unphosphorylated peptides were separated using the Caliper microfluidic mobility shift technology and Kinase activities were calculated from the amounts of formed phospho-peptide.

PKC-theta = biological target: T2, PKC-theta (Homo sapiens, UniProt Q04759); test: Protein kinase C theta assay (Caliper mobility shift); type: biochemical; settings: full length human recombinant enzyme, 70 μM ATP; read-out: PKCθ (IC50 in nM)
T2 construct: Both enzymes were full length human recombinant protein expressed in insect cells; purchased Invitrogen AG, Basel, Switzerland; host or cells: insect cells
T2 sequence (Q04759 whole entry): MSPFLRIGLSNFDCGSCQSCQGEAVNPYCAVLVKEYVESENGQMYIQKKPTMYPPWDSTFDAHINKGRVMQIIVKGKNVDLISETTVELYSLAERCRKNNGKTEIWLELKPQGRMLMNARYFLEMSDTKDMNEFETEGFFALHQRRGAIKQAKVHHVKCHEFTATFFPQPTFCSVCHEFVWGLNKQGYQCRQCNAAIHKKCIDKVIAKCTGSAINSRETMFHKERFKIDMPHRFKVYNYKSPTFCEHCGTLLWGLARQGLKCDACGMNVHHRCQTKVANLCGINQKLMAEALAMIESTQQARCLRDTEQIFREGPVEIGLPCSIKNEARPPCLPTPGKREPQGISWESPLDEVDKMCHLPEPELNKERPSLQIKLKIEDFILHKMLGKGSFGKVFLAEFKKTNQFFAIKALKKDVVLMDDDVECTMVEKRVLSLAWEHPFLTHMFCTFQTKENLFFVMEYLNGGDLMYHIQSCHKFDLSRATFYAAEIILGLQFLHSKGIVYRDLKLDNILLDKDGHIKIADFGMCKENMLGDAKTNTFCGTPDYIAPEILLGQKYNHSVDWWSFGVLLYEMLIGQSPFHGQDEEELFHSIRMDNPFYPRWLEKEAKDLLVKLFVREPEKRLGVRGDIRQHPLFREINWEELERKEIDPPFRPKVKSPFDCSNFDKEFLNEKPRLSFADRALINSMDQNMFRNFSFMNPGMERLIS
Experimental: as §1, §2, §3

[1] = Dog pharmacokinetics after oral administration of compound of example No. 1; type: in vivo, Beagle dogs
Experimental: A single dose of the compound of example 1 (3.0 mg/kg) was administered p.o. to 3 male Beagle dogs. Compound 1 was dosed as an aqueous suspension of the crystalline monohydrate form in Methylcellulose (0.5%): Tween 80 (1%) (90:10). Blood was taken in regular intervals by venipuncture, and the samples were analyzed for a period of up to 24 hours. The compounds of the examples 1, 2, and 3 were quantitatively assessed over time, and the results are tabulated below:
Key pharmacokinetic parameters (mean values±standard deviations (n=3) for 1, 2 and 3 after oral dosing of example No. 1.

[2] = Stability in gastric and intestinal simulated fluids at 37° C.; type: physicochemical
Experimental: Stability Assessments Stability of Cpd. Example No. 1 in Gastric and Intestinal Simulated Fluids at 37° C.:
Stability of compound Example No. 3
(Free form/acetate salt form) in gastric and intestinal simulated fluids at 37° C.: […]

[3] = Chemical stability of amorphous and crystalline solid; type: physicochemical; settings: 1 week
[4] = dog, blood, po, male Beagle dogs, example 1 3.0 mg/kg p.o.

## Cc1cccc2c(C3=C(c4nc(N5CCNC6(CC6)C5)cc5ccccc45)C(=O)N(COP(=O)(O)O)C3=O)c[nH]c12 [Example 1, Phosphoric acid mono-[3-[3-(4,7-diaza-spiro[2.5]oct-7-yl)-isoquinolin-1-yl]-4-(7-methyl-1H-indol-3-yl)-2,5-dioxo-2,5-dihydro-pyrrol-1-ylmethyl]ester]
PKC-alpha
  IC50: 1680 nM
PKC-theta
  IC50: 462 nM
[1]; after administration, example 3 is main component in blood after around an hour
  Conversion of prodrug into parent compound in blood: is converted into compound of example 3
[1]; [4]
  concentration at 0.25 h: 3.1 nM
  concentration at 0.5 h: 1.1 nM
[2]; FaSSIF pH 6.5, 37° C., 0 hours
  Amount in Area % of compound example No. 1: 95.1 Area %
[2]; FaSSIF pH 6.5, 37° C., 1 hours
  Amount in Area % of compound example No. 1: 93.8 Area %
[2]; FaSSIF pH 6.5, 37° C., 2.5 hours
  Amount in Area % of compound example No. 1: 92.3 Area %
[2]; FaSSIF pH 6.5, 37° C., 4.2 hours
  Amount in Area % of compound example No. 1: 90.5 Area %
[2]; FaSSIF pH 6.5, 37° C., 7 hours
  Amount in Area % of compound example No. 1: 87.7 Area %
[2]; FeSSIF pH 5.8, 37° C., 0 hours
  Amount in Area % of compound example No. 1: 95.0 Area %
[2]; FeSSIF pH 5.8, 37° C., 1 hours
  Amount in Area % of compound example No. 1: 94.9 Area %
[2]; FeSSIF pH 5.8, 37° C., 2.5 hours
  Amount in Area % of compound example No. 1: 94.8 Area %
[2]; FeSSIF pH 5.8, 37° C., 4.2 hours
  Amount in Area % of compound example No. 1: 94.8 Area %
[2]; FeSSIF pH 5.8, 37° C., 7 hours
  Amount in Area % of compound example No. 1: 94.8 Area %
[2]; SGF pH 2, 37° C., 0 hours
  Amount in Area % of compound example No. 1: 95.9 Area %
[2]; SGF pH 2, 37° C., 1 hours
  Amount in Area % of compound example No. 1: 95.5 Area %
[2]; SGF pH 2, 37° C., 2.5 hours
  Amount in Area % of compound example No. 1: 95.3 Area %
[2]; SGF pH 2, 37° C., 4.2 hours
  Amount in Area % of compound example No. 1: 95.6 Area %
[2]; SGF pH 2, 37° C., 7 hours
  Amount in Area % of compound example No. 1: 95.6 Area %
[3]; Amorphous, initial purity 98.5 %, 50 ° C.
  Purity after exposure: 95.8%
[3]; Amorphous, initial purity 98.5 %, 80 ° C.
  Purity after exposure: 89.7%
[3]; Crystalline mono-hydrate, initial purity 100 %, 50 ° C.
  Purity after exposure: 100%
[3]; Crystalline mono-hydrate, initial purity 100 %, 80 ° C.
  Purity after exposure: 100%

## Cc1cccc2c(C3=C(c4nc(N5CCNC6(CC6)C5)cc5ccccc45)C(=O)N(CO)C3=O)c[nH]c12 [Example 2, 3-[3-(4,7-Diaza-spiro[2.5]oct-7-yl)-isoquinolin-1-yl]-1-hydroxymethyl-4-(7-methyl-1H-indol-3-yl)-pyrrole-2,5-dione]
[1]; dog, blood, po, male Beagle dogs, example 1 3.0 mg/kg p.o. (crystalline monohydrate suspension), 0.083 h
  concentration at 0.083 h: 10 nM
[1]; [4]
  concentration at 0.25 h: 39.6 nM
  concentration at 0.5 h: 31.3 nM
[1]; dog, blood, po, male Beagle dogs, example 1 3.0 mg/kg p.o., 0.75 h
  concentration at 0.75 h: 19.1 nM
[1]; dog, blood, po, male Beagle dogs, example 1 3.0 mg/kg p.o., 1 h
  concentration at 1 h: 6.3 nM
[1]; dog, blood, po, male Beagle dogs, example 1 3.0 mg/kg p.o., 2 h
  concentration at 2 h: 7.7 nM
[1]; dog, blood, po, male Beagle dogs, example 1 3.0 mg/kg p.o., 3 h
  concentration at 3 h: 1 nM
[1]; dose normalized, mean ± SD (n=3), after oral dosing of example No. 1 to dogs
  AUC d.n.: low
[1]; male, Beagle, dog, blood, 3 mg/kg, mean ± SD (n=3), after oral dosing of example No. 1 to dogs
  Tmax: 24 ± 6 min
